Literature values in Sander's compilation of Henry's law constants.
Several values for one entry are separate records, joined by “and”; a condition that tells them apart may be missing. Equal values may be shown once. Blank lines part the entries; values can stand above or below the compound they belong to.

Assay: Henry solubility constant Hcp at 298.15 K (mol/(m3 Pa))
Settings: cited value
[1] = reference: Burkholder et al. (2015)
[2] = reference: Burkholder et al. (2019)
[3] = reference: Barcelo and Hennion (1997)
[4] = reference: Fogg and Sangster (2003)
[5] = reference: Sander et al. (2006)
[6] = reference: Sander et al. (2011)

Henry solubility constant Hcp (reference: Brockbank (2013)): 0.014
Compound: CCOC(=O)CC(C)C [ethyl 3-methylbutanoate]

Compound: OBr [hypobromous acid]
Henry solubility constant Hcp [1]: > 13 | Henry solubility constant Hcp [2]: > 13

Henry solubility constant Hcp (reference: MacBean (2012b)): 47
Compound: Cc1c(Br)c2ccc(F)cc2n1S(=O)(=O)c1ncn(S(=O)(=O)N(C)C)n1 [amisulbrom]

Compound: CCNc1nc(NC(C)(C)C)nc(SC)n1 [terbutryn]
Henry solubility constant Hcp [3]: 7.6

Compound: ClC(Cl)=C(Cl)Cl [tetrachloroethene]
Henry solubility constant Hcp (reference: Brockbank (2013)): 0.00056 | Henry solubility constant Hcp [1]: 0.00055 | Henry solubility constant Hcp [2]: 0.00055 | Henry solubility constant Hcp (reference: Dilling (1977)): 0.00081 | Henry solubility constant Hcp (reference: Dilling et al. (1975)): 0.00081 | Henry solubility constant Hcp [4]: 0.0006 | Henry solubility constant Hcp (reference: Goldstein (1982)): 0.00036

Compound: Cc1ccc([N+](=O)[O-])cc1 [4-nitrotoluene]
Henry solubility constant Hcp (reference: Brockbank (2013)): 0.89 | Henry solubility constant Hcp (reference: Goldstein (1982)): 0.16

Compound: [O]N=O [nitrogen dioxide]
Henry solubility constant Hcp [1]: 0.00012 | Henry solubility constant Hcp [2]: 0.00012 | Henry solubility constant Hcp [5]: 0.00014 | Henry solubility constant Hcp [6]: 0.00012 | Henry solubility constant Hcp (reference: Schwartz and White (1981)): 0.00012

Compound: CC(=O)CF [1-fluoro-2-propanone]
Henry solubility constant Hcp [1]: 0.46 | Henry solubility constant Hcp [2]: 0.46

Compound: CCNc1nc(Cl)nc(NCC)n1 [simazine]
Henry solubility constant Hcp [3]: 29

Henry solubility constant Hcp [4]: 0.00056
Compound: FC(F)(F)C(Cl)Br (stereo unspecified) [1-bromo-1-chloro-2,2,2-trifluoroethane]

Compound: CC(C)(C)C(O)(CCc1ccc(Cl)cc1)Cn1cncn1 (stereo unspecified) [tebuconazole]
Henry solubility constant Hcp [3]: 1100

Compound: ClC1C(Cl)C(Cl)C(Cl)C(Cl)C1Cl (stereo not drawn) [β-1,2,3,4,5,6-hexachlorocyclohexane]
Henry solubility constant Hcp (reference: Xiao et al. (2004)): 27

Compound: CC(CCl)OC(C)CCl (stereo unspecified) [bis-(2-chloroisopropyl) ether]
Henry solubility constant Hcp (reference: Goldstein (1982)): 0.065 and 0.064

Henry solubility constant Hcp (reference: Brockbank (2013)): 0.00057
Compound: CC(C)Cl [2-chloropropane]

Henry solubility constant Hcp [3]: 82
Compound: COc1c(Cl)ccc(Cl)c1C(=O)O [dicamba]

Henry solubility constant Hcp (reference: Brockbank (2013)): 0.67
Compound: CCCC(C)O (stereo unspecified) [2-pentanol]

Compound: COC(=O)c1ccccc1C(=O)OC [dimethyl phthalate]
Henry solubility constant Hcp (reference: Brockbank (2013)): 51 | Henry solubility constant Hcp (reference: Goldstein (1982)): 29 and 30 | Henry solubility constant Hcp (reference: McCarty (1980)): 23

Henry solubility constant Hcp (reference: Brockbank (2013)): 5.8e-05
Compound: C1CCCC1 [cyclopentane]

Henry solubility constant Hcp (reference: Brockbank (2013)): 1.6e-05
Compound: C=CCCCCCC [1-octene]

Compound: Clc1ccc(Cl)cc1 [1,4-dichlorobenzene]
Henry solubility constant Hcp (reference: Brockbank (2013)): 0.0038 | Henry solubility constant Hcp [4]: 0.0045 | Henry solubility constant Hcp (reference: Goldstein (1982)): 0.0037

Henry solubility constant Hcp (reference: Brockbank (2013)): 0.27
Compound: CCCCCCC(C)O (stereo unspecified) [2-octanol]

Compound: CC(=O)OO [ethanoic peroxyacid]
Henry solubility constant Hcp [1]: 8.3 | Henry solubility constant Hcp [2]: 8.3 | Henry solubility constant Hcp [6]: 8.3

Compound: FC(F)F [trifluoromethane]
Henry solubility constant Hcp [1]: 0.00013 | Henry solubility constant Hcp [2]: 0.00013 | Henry solubility constant Hcp [6]: 0.00013

Henry solubility constant Hcp (reference: Brockbank (2013)): 0.00012
Compound: C#CCCCCCC [1-octyne]

Compound: COC(=O)c1ccccc1S(=O)(=O)NC(=O)N(C)c1nc(C)nc(OC)n1 [tribenuron-methyl]
Henry solubility constant Hcp (reference: MacBean (2012b)): 9.7e+07

Compound: OO [hydrogen peroxide]
Henry solubility constant Hcp (reference: Brockbank (2013)): 950 | Henry solubility constant Hcp [1]: 860 | Henry solubility constant Hcp [2]: 860 | Henry solubility constant Hcp [4]: 980 | Henry solubility constant Hcp [5]: 760 | Henry solubility constant Hcp [6]: 830

Henry solubility constant Hcp (reference: Brockbank (2013)): 2.7e-06
Compound: CCCC(C)CCC [4-methylheptane]

Compound: Cc1ccc(N=CN(C)C=Nc2ccc(C)cc2C)c(C)c1 [amitraz]
Henry solubility constant Hcp (reference: MacBean (2012b)): 1

Henry solubility constant Hcp (reference: Brockbank (2013)): 0.016
Compound: CC(C)COC=O [(2-methylpropyl)-methanoate]

Henry solubility constant Hcp (reference: Brockbank (2013)): 1.9e-06
Compound: CC(C)CCC(C)(C)C [2,2,5-trimethylhexane]

Compound: CC(=O)C(F)(F)F [1,1,1-trifluoro-2-propanone]
Henry solubility constant Hcp [1]: 1.4 | Henry solubility constant Hcp [2]: 1.4 | Henry solubility constant Hcp [6]: 1.4

Compound: CC(C)NC(=O)N1CC(=O)N(c2cc(Cl)cc(Cl)c2)C1=O [iprodione]
Henry solubility constant Hcp [3]: 710

Compound: O=[O+][O-] [ozone]
Henry solubility constant Hcp (reference: Biń (2005)): 7.6e-05 | Henry solubility constant Hcp [1]: 0.0001 | Henry solubility constant Hcp [2]: 0.0001 | Henry solubility constant Hcp (reference: Perry and Chilton (1973)): 0.00012 | Henry solubility constant Hcp [5]: 0.0001 | Henry solubility constant Hcp [6]: 0.0001 | Henry solubility constant Hcp (reference: Warneck (2003)): 0.00011

Henry solubility constant Hcp (reference: Howard et al. (1991)): 3.5
Compound: c1ccc(Nc2ccccc2)cc1 [diphenylamine]

Henry solubility constant Hcp (reference: Brockbank (2013)): 0.0063
Compound: CCCCCCCCCC=O [decanal]

Compound: ClCCCCCCl [1,5-dichloropentane]
Henry solubility constant Hcp (reference: Brockbank (2013)): 0.01

Compound: ClCC1CO1 (stereo unspecified) [(chloromethyl)-oxirane]
Henry solubility constant Hcp (reference: Goldstein (1982)): 0.28
